What was measured:
duck salad = test: Test B flood test duck salad; assay type: in vivo, Heteranthera limosa; details: for Ducksalad plant response rating (0 to 10 scale, 0 is no effect, 10 is complete control): Rate 125 g/ha, under heading Pre-emergence; for Ducksalad plant response rating (0 to 10 scale, 0 is no effect, 10 is complete control) / Plant response rating, Ducksalad (0 to 10 scale, 0 is no effect, 10 is complete control): flood test species, visual evaluation after twelve to sixteen days; for Plant response rating, Ducksalad (0 to 10 scale, 0 is no effect, 10 is complete control): Rate 62 g/ha
In short: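 Plants were grown to the 2-leaf stage before treatment with test chemical, then held in a greenhouse for twelve to sixteen days. Injury was visually rated against untreated controls on a 0–10 scale, where 0 is no effect and 10 is complete control.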

purple nutsedge = test: Test B pre/postemergence purple nutsedge; assay type: in vivo, Cyperus rotundus
In short: (§1)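 Test chemicals in a non-phytotoxic solvent mixture with surfactant were sprayed preemergence onto planted seeds and postemergence onto plants 2 to 18 cm tall (1- to 4-leaf stage). After twelve to sixteen days in a greenhouse, injury was visually rated against untreated controls from 0 (no effect) to 10 (complete control).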

soybean = test: Test B pre/postemergence soybean; assay type: in vivo, Glycine max
In short: as §1

wheat = test: Test B pre/postemergence wheat; assay type: in vivo, Triticum aestivum
In short: as §1

[1] = Pre-emergence, Rate 1000 g/ha, scale 0 to 10 (0 no effect, 10 complete control)
[2] = Rate 250 g/ha, Pre-emergence (flood test species), scale 0 to 10, 0 is no effect, 10 is complete control
[3] = Rate 500 g/ha, Pre-emergence section of Table B, 0 to 10 scale (0 no effect, 10 complete control)
[4] = Postemergence, Rate 125 g/ha, scale of 0 to 10 where 0 is no effect and 10 is complete control
[5] = Postemergence, Rate 250 g/ha, scale of 0 to 10, 0 is no effect, 10 is complete control
[6] = Postemergence, Rate 500 g/ha, scale of 0 to 10 where 0 is no effect and 10 is complete control
[7] = Postemergence, Rate 1000 g/ha, scale 0 to 10 (0 no effect, 10 complete control)
[8] = Preemergence, Rate 125 g/ha, scale of 0 to 10 where 0 is no effect and 10 is complete control
[9] = Preemergence, Rate 500 g/ha, scale of 0 to 10 where 0 is no effect and 10 is complete control
[10] = Rate 1000 g/ha, Preemergence, scale 0 to 10 (0 no effect, 10 complete control)
[11] = Postemergence, Rate 62 g/ha, scale 0 to 10, 0 is no effect, 10 is complete control
[12] = Preemergence, Rate 62 g/ha, scale 0 to 10 (0 no effect, 10 complete control)
[13] = Preemergence, Rate 250 g/ha, scale 0 to 10 (0 no effect, 10 complete control)
[14] = Preemergence, Rate 62 g/ha, scale of 0 to 10 where 0 is no effect and 10 is complete control

Compound	Ducksalad plant response rating (0 to 10 scale, 0 is no effect, 10 is complete control) (duck salad)	Ducksalad plant response rating (duck salad; [2])	Ducksalad plant response rating (duck salad; [3])	Plant response rating, Nutsedge (purple nutsedge; [4])	Nutsedge plant response rating (purple nutsedge; [5])	Nutsedge plant response rating (purple nutsedge; [8])	Plant response rating, Soybean (soybean; [4])	Soybean plant response rating (soybean; [5])	Soybean plant response rating (soybean; [8])	Plant response rating, Wheat (wheat; [4])	Wheat plant response rating (wheat; [5])	Wheat plant response rating (wheat; [8])	Plant response rating, Nutsedge (purple nutsedge; [9])	Plant response rating, Soybean (soybean; [9])	Plant response rating, Wheat (wheat; [9])	Plant response rating, Ducksalad (0 to 10 scale, 0 is no effect, 10 is complete control) (duck salad; Pre-emergence)	Plant response rating, Nutsedge (purple nutsedge; [11])	Plant response rating, Soybean (soybean; [11])	Plant response rating, Soybean (soybean; [13])	Plant response rating, Wheat (wheat; [11])	also measured
CCOP(=O)(Cn1c(=O)on(C(=O)N(c2ccc(F)cc2)C(C)C)c1=O)OCC [Compound 587]	0	0	0	0	0	0	4	6	0	0	0	0									Ducksalad plant response rating (duck salad; [1]): 0; Plant response rating, Nutsedge (purple nutsedge; [6]): 0; Nutsedge plant response rating (purple nutsedge; [7]): 0; Nutsedge plant response rating (purple nutsedge; [9]): 0; Plant response rating, Nutsedge (purple nutsedge; [10]): 0; Plant response rating, Soybean (soybean; [6]): 6; Soybean plant response rating (soybean; [7]): 6; Soybean plant response rating (soybean; [9]): 2; Plant response rating, Soybean (soybean; [10]): 2; Plant response rating, Wheat (wheat; [6]): 0; Wheat plant response rating (wheat; [7]): 3; Wheat plant response rating (wheat; [9]): 3; Plant response rating, Wheat (wheat; [10]): 7
C=CCn1c(=O)on(C(=O)N(c2c(C)cccc2C)C(C)COC)c1=O (stereo not shown) [Compound 600]	0	0	0	0	0	0	2	3	0	0	0	0	0	0	0						Ducksalad plant response rating (duck salad; [1]): 0; Plant response rating, Nutsedge (purple nutsedge; [6]): 0; Nutsedge plant response rating (purple nutsedge; [7]): 0; Plant response rating, Nutsedge (purple nutsedge; [10]): 0; Plant response rating, Soybean (soybean; [6]): 4; Soybean plant response rating (soybean; [7]): 4; Plant response rating, Soybean (soybean; [10]): 3; Plant response rating, Wheat (wheat; [6]): 0; Wheat plant response rating (wheat; [7]): 0; Plant response rating, Wheat (wheat; [10]): 0
CCOC(=O)CC(C(=O)OCC)n1c(=O)on(C(=O)N(c2ccc(F)cc2)C(C)C)c1=O (stereo not shown) [Compound 615]	0	0	0	0	0	0	1	3	0	0	0	0	0	0	0	0	0	1	0	0	Nutsedge plant response rating (purple nutsedge; [12]): 0; Plant response rating, Nutsedge (purple nutsedge; [13]): 0; Plant response rating, Soybean (soybean; [6]): 3; Soybean plant response rating (soybean; [12]): 0; Plant response rating, Wheat (wheat; [6]): 0; Wheat plant response rating (wheat; [12]): 0; Plant response rating, Wheat (wheat; [13]): 0
CCOC(Cn1c(=O)on(C(=O)N(c2ccc(F)cc2)C(C)C)c1=O)OCC [Compound 629]	0	0	0	0	0	2	6	7	0	0	0	0	5	0	3	0	0	4	0	0	Plant response rating, Nutsedge (purple nutsedge; [6]): 0; Nutsedge plant response rating (purple nutsedge; [12]): 0; Plant response rating, Nutsedge (purple nutsedge; [13]): 5; Soybean plant response rating (soybean; [12]): 0; Wheat plant response rating (wheat; [12]): 0; Plant response rating, Wheat (wheat; [13]): 3
CCOC(Cn1c(=O)on(C(=O)N(c2ccc(F)cc2F)C(C)C)c1=O)OCC [Compound 630]	0	0	0	0		0		5	0	0	0	0	3	3	8	0	0	4	0	0	Plant response rating, Nutsedge (purple nutsedge; [6]): 0; Nutsedge plant response rating (purple nutsedge; [12]): 0; Plant response rating, Nutsedge (purple nutsedge; [13]): 0; Soybean plant response rating (soybean; [12]): 0; Wheat plant response rating (wheat; [12]): 0; Plant response rating, Wheat (wheat; [13]): 3
CCOC(Cn1c(=O)on(C(=O)N(c2ccc(Cl)cc2)C(C)C)c1=O)OCC [Compound 633]	0	0	0	0	0	0	2	2	0	0	0	0	0	0	0	0	0	2	0	0	Plant response rating, Nutsedge (purple nutsedge; [6]): 0; Nutsedge plant response rating (purple nutsedge; [12]): 0; Plant response rating, Nutsedge (purple nutsedge; [13]): 0; Soybean plant response rating (soybean; [12]): 0; Wheat plant response rating (wheat; [12]): 0; Plant response rating, Wheat (wheat; [13]): 0
CC(C)N(C(=O)n1oc(=O)n(CC(=O)C2CCC2)c1=O)c1ccc(F)cc1 [Compound 640]	0	0	0	0	0	0	0	0	0	0	0	0	0	0	2	0	0	0	0	0	Nutsedge plant response rating (purple nutsedge; [14]): 0; Soybean plant response rating (soybean; [14]): 0; Wheat plant response rating (wheat; [14]): 0; Plant response rating, Wheat (wheat; [13]): 0
CC(C)N(C(=O)n1oc(=O)n(Cc2nnc(Cl)s2)c1=O)c1ccc(F)cc1F [Compound 645]	0	0	0			0			0			0	0	0	0	0	0	1	0	0	Nutsedge plant response rating (purple nutsedge; [4]): 0; Nutsedge plant response rating (purple nutsedge; [14]): 0; Plant response rating, Nutsedge (purple nutsedge; [13]): 0; Soybean plant response rating (soybean; [4]): 1; Soybean plant response rating (soybean; [14]): 0; Wheat plant response rating (wheat; [4]): 0; Wheat plant response rating (wheat; [14]): 0; Plant response rating, Wheat (wheat; [13]): 0

Reference: patent US6737383B1, “Herbicidal oxadiazolidines” (priority 1999, dated 2004)
